Experimental data as given in PMC4541410 (Scientific Reports, 2015).
Like-named read-outs stand apart in the source and are kept apart here. Where a SMILES comes first, the peptide text is derived from it.

How the values were obtained:
HIV-1Bal (subtype B, R5) = settings: read-out: IC50, inhibition of infection by HIV-1Bal; M7 cells, 100 TCID50, p24 ELISA day 7; triplicate, repeated twice
Description: (§1) Then, the culture supernatants were changed to fresh media. On the fourth day post-infection, culture supernatants were collected for detection of p24 antigen by ELISA. […] Then, the culture supernatants were changed to fresh media. On the fourth day post-infection, the culture supernatants were discarded and fresh media were complemented again. The supernatants were collected on the seventh day post-infection and tested for p24 antigen by ELISA as previously described. The percent inhibition of p24 production was calculated.

[1] = test system: HIV-1IIIB (subtype B, X4); settings: read-out: IC50, inhibition of infection by HIV-1IIIB; MT-2 cells, 100 TCID50, p24 ELISA day 4; triplicate, repeated twice
Description: as §1

92UG024 (D) = format: cell-based; settings: primary HIV-1 isolate, subtype D; read-out: IC50 (nM), infection by primary isolate 92UG024 (D)
NP1525 (A/E) = format: cell-based; settings: primary HIV-1 isolate, subtype A/E; read-out: IC50 (nM), infection by primary isolate NP1525 (A/E)
93BR020 (F) = format: cell-based; settings: primary HIV-1 isolate, subtype F; read-out: IC50 (nM), infection by primary isolate 93BR020 (F)
[2] = test system: T20-resistant HIV-1 variant V38A/N42D; format: cell-based
[3] = test system: T20-resistant HIV-1 variant N42T/N43K; format: cell-based
[4] = test system: T20-resistant HIV-1 variant V38E/N42S; format: cell-based
[5] = test system: T20-resistant HIV-1 variant V38A/N42T; format: cell-based
[6] = test system: HIV-1IIIB (subtype B, X4); assay: Inhibition of HIV-1 IIIB infection by peptides in the presence of sera from HIV-1-infected patients; format: cell-based; settings: for IC50: MT-2 cells, triplicate, mean ± SD
Protocol: Inhibition of peptides on HIV-1IIIB (subtype B, X4)infection in the presence of HIV-1-infected patients’ sera was determined as previously described. Briefly, each peptide was mixed with serially diluted serum from an HIV-1-infected patient at room temperature for 30 min. Next, the mixture of peptide/serum and HIV-1 (100 TCID50) were added to MT-2 cells (1 × 10^5/ml) in RPMI 1640 medium containing 10% FBS. After incubation at 37 °C overnight, the culture supernatants were replaced with fresh culture medium.

proteinase K = assay: in vitro; settings: proteinase K in PBS, pH 7.2
Protocol: Chromatographic analyses were performed using an ODS-C8 column (5 μm, 100 mm × 2.0 mm ID) kept at ambient temperature. The mobile phase was composed of acetonitrile-water-formic acid in the ratio of 50:50:0.1 (v/v/v) at a flow rate of 0.3 mL/min. The sample injection volume was 10 μL. Acetonitrile was HPLC grade and other chemical reagents and solvents were analytical grade. A Thermo TSQ Quantum Discovery MAX triple-quadruple tandem mass spectrometer equipped with ESI source (San Jose, CA) and Surveyor LC pump were used for LC-MS analysis. Data acquisition and data processing were performed by using Xcalibur software and LCQuan 2.0 data analysis program (Thermo Finnigan), respectively. Optimized MS parameters were as below: 4800 V spray voltage, 40.0 psi sheath gas pressure, 1.0 psi auxiliary valve flow and 300 °C of capillary temperature. When running collision-induced dissociation (CID), the pressure was set to 1.5 mTorr.
The peptides (10 μg/mL) were prepared in PBS pH 7.2 containing 20 ng/ml proteinase K. The resulting mixture were incubated at 37 °C in a water bath and taken out at different time intervals (0, 5, 15, 30, 60, 120 minutes), followed by quenching the samples with ethyl alcohol and quantitating the peptides by LC-MS analysis as described above.

N36 (gp41 NHR peptide) = target: T1, N36 (gp41 NHR peptide) (Human immunodeficiency virus type 1 group M subtype B, UniProt P04578); assay: CD spectroscopy and thermal midpoint analysis of peptide/N36 complexes; format: physicochemical, HIV-1
T1 construct: gp41 NHR (“N36”, 546-581); made in house; host or cells: chemical solid-phase FMOC synthesis
T1 sequence (P04578 546-581): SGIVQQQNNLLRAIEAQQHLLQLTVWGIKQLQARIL
Protocol: Briefly, each peptide or peptide mixture was dissolved in phosphate-buffered saline (PBS: 50 mM sodium phosphate and 150 mM NaCl, pH 7.2) at the final concentration of 10 μM and incubated at 37 °C for 30 min before cooling down to 4 °C. The CD spectra of each sample were acquired on a Jasco spectropolarimeter (Model J-815, Jasco Inc., Japan) at 4 °C using a 5 nm bandwidth, 0.1 nm resolution, 0.1 cm path length and an average time of 5.0 sec. Spectra were corrected by the subtraction of a blank corresponding to the solvent composition of each sample. Thermal midpoint analysis was used to determine the temperature at which 50% of the 6-HB formed by the CHR and NHR would decompose. It was monitored at 222 nm from 4 °C to 98 °C by applying a thermal gradient of 5 °C/min. The melting curve was smoothed and the midpoint of the thermal unfolding transition (Tm) values was calculated using Jasco software utilities as described above.

92UG029 (A) = settings: read-out: IC50 (nM), infection by primary isolate 92UG029 (A); primary HIV-1 isolate, subtype A
92TH009 (A/E) = settings: read-out: IC50 (nM), infection by primary isolate 92TH009 (A/E); primary HIV-1 isolate, subtype A/E
BCF020 (Group O) = settings: read-out: IC50 (nM), infection by primary isolate BCF020 (Group O), primary HIV-1 isolate
in vivo = settings: male, Sprague-Dawley (SD), rat, plasma, iv, 1 mg/kg
Protocol: Four male SD rats weighing approximately 200 g each were obtained from the Shanghai Medical School Animal Center and were used for the half-life assay. […] After injection, blood samples were acquired from rat orbit at several time points (8 and 30 min and 1.5, 3, 6, 9, 12 and 24 h after peptide injection) and placed in clean tubes. […] Then, HRP-labeled rabbit-anti-mouse IgG (Sigma, USA) and TMB were added in order. Absorbance at 450 nm was determined by an ELISA reader (Ultra 384, Tecan). The standard peptide parameters were obtained first. Then, the plasma peptide concentrations were determined as a function of time and the half-life was calculated by using PK Solver for Microsoft Excel to obtain pharmacokinetic parameters.

CC[C@H](C)[C@H](NC(=O)[C@H](CO)NC(=O)[C@H](CCC(=O)O)NC(=O)[C@H](CCC(=O)O)NC(=O)[C@H](CCC(N)=O)NC(=O)[C@H](CCCCN)NC(=O)[C@H](CCCCN)NC(=O)[C@@H](NC(=O)[C@H](CCC(N)=O)NC(=O)[C@H](CCC(=O)O)NC(=O)[C@H](CCC(=O)O)NC(=O)[C@@H](NC(=O)[C@H](CCCCN)NC(=O)[C@H](CCCCN)NC(=O)[C@@H](NC(=O)[C@H](CC(C)C)NC(=O)[C@H](CCC(=O)O)NC(=O)[C@H](CCC(=O)O)NC(=O)[C@H](CO)NC(=O)[C@H](CCCCN)NC(=O)[C@H](CCCCN)NC(=O)[C@@H](NC(=O)[C@H](CC(C)C)NC(=O)[C@H](CCC(=O)O)NC(=O)[C@H](CCC(=O)O)NC(=O)[C@@H](NC(=O)[C@H](CCCCN)NC(=O)[C@H](CCCCN)NC(=O)[C@H](CC(=O)O)NC(=O)[C@H](Cc1c[nH]c2ccccc12)NC(=O)[C@H](CCC(=O)O)NC(=O)[C@H](CCC(=O)O)NC(=O)[C@H](Cc1c[nH]c2ccccc12)NC(=O)[C@@H](NC(=O)[C@H](CCSC)NC(C)=O)[C@@H](C)O)[C@@H](C)CC)[C@@H](C)CC)[C@@H](C)CC)[C@@H](C)CC)[C@@H](C)CC)C(=O)N[C@@H](CCCCN)C(=O)N[C@@H](CCCCN)C(N)=O [AP3] (Ac-MTWEEWDKKIEELIKKSEELIKKIEEQIKKQEESIKK-NH2)
IC50 (HIV-1Bal (subtype B, R5)): 0.0151 µM | IC50 [1]: 0.00306 µM | IC50 (92UG024 (D)): 16.5 ± 0.2 nM | IC50 (NP1525 (A/E)): 32.3 ± 8.8 nM | IC50 (93BR020 (F)): 19.9 nM | IC50 [2]: 31.3 ± 6.62 nM | IC50 [3]: 35.2 ± 12.5 nM | IC50 [4]: 42.4 ± 11.6 nM | IC50 [5]: 90 ± 21.5 nM | Fold change of IC50, HPS-1 ([6]; HPS-1 relative to N): 0.7 | Fold change of IC50, HPS-2 ([6]; HPS-2 relative to N): 0.2 | Fold change of IC50, HPS-3 ([6]; HPS-3 relative to N): 0.2 | Fold change of IC50, HPS-4 ([6]; HPS-4 relative to N): 0.1 | Fold change of IC50, HPS-5 ([6]; HPS-5 relative to N): 0.2 | IC50 ([6]; in presence of serum of HIV-1-infected patient HPS-1, read-out: IC50 (nM), HIV-1 IIIB infection, HPS-1): 17.7 ± 4.3 nM | IC50 ([6]; in presence of serum of HIV-1-infected patient HPS-2, read-out: IC50 (nM), HIV-1 IIIB infection, HPS-2): 5.1 ± 0.7 nM | IC50 ([6]; in presence of serum of HIV-1-infected patient HPS-3, read-out: IC50 (nM), HIV-1 IIIB infection, HPS-3): 4.2 ± 0.4 nM | IC50 ([6]; in presence of serum of HIV-1-infected patient HPS-4, read-out: IC50 (nM), HIV-1 IIIB infection, HPS-4): 2 ± 0.6 nM | IC50 ([6]; in presence of serum of HIV-1-infected patient HPS-5, read-out: IC50 (nM), HIV-1 IIIB infection, HPS-5): 5.1 ± 0.8 nM | remaining at 2 h, 10 μg/mL (proteinase K): 100% | Tm of complex with N36 (N36 (gp41 NHR peptide); CD thermal denaturation at 222 nm, 4 to 98 °C, 5 °C/min, 10 μM in PBS pH 7.2): 83.6 ^oC | α-helix content of complex with N36 (N36 (gp41 NHR peptide); CD, peptide/N36 mixture 10 μM in PBS pH 7.2, 4 °C): 77.84% | IC50 (92UG029 (A)): 7.1 ± 1.7 nM | IC50 (92TH009 (A/E)): 27.8 ± 5.5 nM | IC50 (BCF020 (Group O)): 21.9 ± 0.1 nM | MRT (in vivo): 8.69 h | half-life (in vivo): 6.02 h
